Literature values as cited in patent US20090298940A1, “All Natural Antifungal And Antimicrobial Composition And Method Thereof” (priority 2008, published 2009).

Key:
[1] = at 20° C.
[2] = when administered internally

Q: Which solubility in water [1] does the source give for `C/C=C/C=C/C(=O)[O-].[K+]` [potassium sorbate, potassium (E,E)-hexa-2,4-dienoate] here?
A: The solubility in water was 58.2%.

Q: And the tolerability [2]?
A: Its tolerability is “well tolerated”.
